Experimental data reported in PubChem BioAssay (NCI).
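GI50 is the concentration that inhibits growth by half. TGI is the concentration that stops growth completely.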

Tests used:
Test in all cases: NCI anticancer screen, dose series, 384-well format
A549 NSCLC = test system: A549 NSCLC
CCRF-CEM leukemia = test system: CCRF-CEM leukemia
HOP-62 NSCLC = test system: HOP-62 NSCLC
MDA-MB-468 breast = test system: MDA-MB-468 breast
NCI-H322M lung = test system: NCI-H322M lung
NCI-H460 NSCLC = test system: NCI-H460 NSCLC
OVCAR-3 ovarian = test system: OVCAR-3 ovarian
OVCAR-5 ovarian = test system: OVCAR-5 ovarian
SF-539 CNS = test system: SF-539 CNS
SNB-19 CNS = test system: SNB-19 CNS
T-47D breast = test system: T-47D breast
U251 glioblastoma = test system: U251 glioblastoma
UO-31 renal = test system: UO-31 renal

Cn1cc(-c2ccc3c(c2)CCN3C(=O)Cc2cccc(C(F)(F)F)c2)c2c(N)ncnc21 was tested, and the GI50 (A549 NSCLC) was 6.71 µM, the TGI (A549 NSCLC) was > 61.4 µM and the GI50 (CCRF-CEM leukemia) was 2.75 µM. The TGI (CCRF-CEM leukemia) was 7.98 µM, the GI50 (HOP-62 NSCLC) was 10.8 µM and the TGI (HOP-62 NSCLC) was 30.3 µM. For the same compound, the GI50 (MDA-MB-468 breast) was 2.86 µM, the TGI (MDA-MB-468 breast) was 10.7 µM and the GI50 (NCI-H322M lung) was 5.96 µM. For the same compound, the TGI (NCI-H322M lung) was 27.7 µM, the GI50 (NCI-H460 NSCLC) was 3.9 µM and the TGI (NCI-H460 NSCLC) was 16.5 µM. It also gave a GI50 (OVCAR-3 ovarian) of 8.44 µM, a TGI (OVCAR-3 ovarian) of 21.6 µM and a GI50 (OVCAR-5 ovarian) of 15.4 µM. It also gave a TGI (OVCAR-5 ovarian) of 29 µM, a GI50 (SF-539 CNS) of 6.09 µM and a TGI (SF-539 CNS) of 19.2 µM. It also gave a GI50 (SNB-19 CNS) of 15.3 µM, a TGI (SNB-19 CNS) of 42.9 µM and a GI50 (T-47D breast) of 2.91 µM. The TGI (T-47D breast) was 9.03 µM, the GI50 (U251 glioblastoma) was 9.54 µM and the TGI (U251 glioblastoma) was 39.4 µM. The GI50 (UO-31 renal) was 6.72 µM and the TGI (UO-31 renal) was 28.4 µM.
